# Patent US20160220569A1, “CDK4/6 Inhibitor Dosage Formulations For The Protection Of Hematopoietic Stem And Progenitor Cells During Chemotherapy” (G1 Therapeutics, Inc., priority 2015, published 2016)
# “And” between values parts separate entries of the source, which are not always exact repeats. Equal values may be shown once. Read-outs that look alike come from different tables or passages of the source.
# Experiment: Topotecan PK following Compound 1 infusion
# Format: in vivo, human
# Conditions: human, plasma, intravenous
# Procedure: Blood samples were obtained prior to dosing, at the end of the 30-minute infusion (EOI), and at 0.5, 1, 1.5, 2, 2.5, 4, 6, 8, and 24 hours after the end of infusion. Analysis of plasma concentration versus time data for calculation of standard pharmacokinetic (PK) parameters following intravenous infusion administration was conducted using Phoenix WinNonlin version 6.3 using a nominal infusion duration and scheduled blood sampling times. In Cohort 2 there were 3 subjects who received 1.25 mg/m^2 of topotecan once daily on Days 1 to 5. In Cohort 3 there were 4 subjects who received 0.75 mg/m^2 of topotecan once daily on Days 1 to 5.
structure (smiles),measurement,setting,value
"CC[C@@]1(O)C(=O)OCc2c1cc1n(c2=O)Cc2cc3c(CN(C)C)c(O)ccc3nc2-1.Cl [topotecan, (S)-10-[(dimethylamino)methyl]-4-ethyl-4,9-dihydroxy-1H-pyrano[3′,4′:6,7]indolizino[1,2-b]quinoline-3,14(4H,12H)-dione monohydrochloride]",Cmax,"Topotecan 0.75 mg/m^2 (Cohort 3) with Compound 1 200 mg/m^2, Day 1, Mean, read-out: Cmax",27.3 ng/mL
same,half-life,"Topotecan 0.75 mg/m^2 (Cohort 3) with Compound 1 200 mg/m^2, Day 1, Mean, read-out: t½ (converted)",4.33 h
same,AUC,"Topotecan 0.75 mg/m^2 (Cohort 3) with Compound 1 200 mg/m^2, Day 1, Median, read-out: AUC24.5",89.1 ng·h/mL
same,AUC(0-inf),"Topotecan 0.75 mg/m^2 (Cohort 3) with Compound 1 200 mg/m^2, Day 1, Median, read-out: AUCinf (converted)",90.8 ng·h/mL and 0.198 µM·h
same,AUC,"Topotecan 0.75 mg/m^2 (Cohort 3) with Compound 1 200 mg/m^2, Day 1, Median, read-out: AUCx5 (converted)",0.992 µM·h
same,Cmax,"Topotecan 0.75 mg/m^2 (Cohort 3) with Compound 1 200 mg/m^2, Day 1, Median, read-out: Cmax",26.4 ng/mL
same,half-life,"Topotecan 0.75 mg/m^2 (Cohort 3) with Compound 1 200 mg/m^2, Day 1, Median, read-out: t½ (converted)",4.3 h
same,AUC,"Topotecan 0.75 mg/m^2 (Cohort 3) with Compound 1 200 mg/m^2, Day 1, individual subjects, read-out: AUC24.5",83.5 ng·h/mL
same,AUC(0-inf),"Topotecan 0.75 mg/m^2 (Cohort 3) with Compound 1 200 mg/m^2, Day 1, individual subjects, read-out: AUCinf (converted)",84.8 ng·h/mL and 0.185 µM·h
same,AUC,"Topotecan 0.75 mg/m^2 (Cohort 3) with Compound 1 200 mg/m^2, Day 1, individual subjects, read-out: AUCx5 (converted)",0.927 µM·h
same,half-life,"Topotecan 0.75 mg/m^2 (Cohort 3) with Compound 1 200 mg/m^2, Day 1, individual subjects, read-out: t½ (converted)",4.32 h
same,AUC,"Topotecan 0.75 mg/m^2 (Cohort 3) with Compound 1 200 mg/m^2, Day 4, Mean, read-out: AUCτ (converted)",92.4 ng·h/mL and 0.202 µM·h
same,Cmax,"Topotecan 0.75 mg/m^2 (Cohort 3) with Compound 1 200 mg/m^2, Day 4, Mean, read-out: Cmax",24.5 ng/mL
same,half-life,"Topotecan 0.75 mg/m^2 (Cohort 3) with Compound 1 200 mg/m^2, Day 4, Mean, read-out: t½ (converted)",4.78 h
same,AUC,"Topotecan 0.75 mg/m^2 (Cohort 3) with Compound 1 200 mg/m^2, Day 4, Median, read-out: AUCτ (converted)",91.7 ng·h/mL and 0.2 µM·h
same,Cmax,"Topotecan 0.75 mg/m^2 (Cohort 3) with Compound 1 200 mg/m^2, Day 4, Median, read-out: Cmax",24.5 ng/mL
same,half-life,"Topotecan 0.75 mg/m^2 (Cohort 3) with Compound 1 200 mg/m^2, Day 4, Median, read-out: t½ (converted)",4.7 h
same,AUC,"Topotecan 0.75 mg/m^2 (Cohort 3) with Compound 1 200 mg/m^2, Day 4, individual subjects, read-out: AUCτ (converted)",83.7 ng·h/mL and 0.183 µM·h
same,Cmax,"Topotecan 0.75 mg/m^2 (Cohort 3) with Compound 1 200 mg/m^2, Day 4, individual subjects, read-out: Cmax",26.4 ng/mL
same,half-life,"Topotecan 0.75 mg/m^2 (Cohort 3) with Compound 1 200 mg/m^2, Day 4, individual subjects, read-out: t½ (converted)",4.63 h
same,AUC,"Topotecan 1.25 mg/m^2 (Cohort 2) with Compound 1 200 mg/m^2, Day 1, Mean, read-out: AUC24.5",175 ng·h/mL
same,AUC(0-inf),"Topotecan 1.25 mg/m^2 (Cohort 2) with Compound 1 200 mg/m^2, Day 1, Mean, read-out: AUCinf (converted)",180 ng·h/mL and 0.392 µM·h
same,AUC,"Topotecan 1.25 mg/m^2 (Cohort 2) with Compound 1 200 mg/m^2, Day 1, Mean, read-out: AUCx5 (converted)",1.97 µM·h
same,Cmax,"Topotecan 1.25 mg/m^2 (Cohort 2) with Compound 1 200 mg/m^2, Day 1, Mean, read-out: Cmax",63.7 ng/mL
same,half-life,"Topotecan 1.25 mg/m^2 (Cohort 2) with Compound 1 200 mg/m^2, Day 1, Mean, read-out: t½ (converted)",4.93 h
same,AUC,"Topotecan 1.25 mg/m^2 (Cohort 2) with Compound 1 200 mg/m^2, Day 1, Median, read-out: AUC24.5",159 ng·h/mL
same,AUC(0-inf),"Topotecan 1.25 mg/m^2 (Cohort 2) with Compound 1 200 mg/m^2, Day 1, Median, read-out: AUCinf (converted)",162 ng·h/mL and 0.355 µM·h
same,AUC,"Topotecan 1.25 mg/m^2 (Cohort 2) with Compound 1 200 mg/m^2, Day 1, Median, read-out: AUCx5 (converted)",1.77 µM·h
same,Cmax,"Topotecan 1.25 mg/m^2 (Cohort 2) with Compound 1 200 mg/m^2, Day 1, Median, read-out: Cmax",57.7 ng/mL
same,half-life,"Topotecan 1.25 mg/m^2 (Cohort 2) with Compound 1 200 mg/m^2, Day 1, Median, read-out: t½ (converted)",4.92 h
same,half-life,"Topotecan 1.25 mg/m^2 (Cohort 2) with Compound 1 200 mg/m^2, Day 1, individual subjects, read-out: t½ (converted)",4.78 h
same,AUC,"Topotecan 1.25 mg/m^2 (Cohort 2) with Compound 1 200 mg/m^2, Day 4, Mean, read-out: AUCτ (converted)",171 ng·h/mL and 0.375 µM·h
same,Cmax,"Topotecan 1.25 mg/m^2 (Cohort 2) with Compound 1 200 mg/m^2, Day 4, Mean, read-out: Cmax",59.6 ng/mL
same,AUC,"Topotecan 1.25 mg/m^2 (Cohort 2) with Compound 1 200 mg/m^2, Day 4, Median, read-out: AUCτ (converted)",158 ng·h/mL and 0.345 µM·h
same,Cmax,"Topotecan 1.25 mg/m^2 (Cohort 2) with Compound 1 200 mg/m^2, Day 4, Median, read-out: Cmax",41.8 ng/mL
same,half-life,"Topotecan 1.25 mg/m^2 (Cohort 2) with Compound 1 200 mg/m^2, Day 4, Median, read-out: t½ (converted)",5.39 h
same,AUC,"Topotecan 1.25 mg/m^2 (Cohort 2) with Compound 1 200 mg/m^2, Day 4, individual subjects, read-out: AUCτ (converted)",158 ng·h/mL and 0.345 µM·h
same,half-life,"Topotecan 1.25 mg/m^2 (Cohort 2) with Compound 1 200 mg/m^2, Day 4, individual subjects, read-out: t½ (converted)",5.39 h
same,AUC,"Topotecan […]^2 (Cohort 1) with Compound 1 200 mg/m^2, Day 1, Mean, read-out: AUC24.5",150 ng·h/mL
same,AUC,"Topotecan […]^2 (Cohort 1) with Compound 1 200 mg/m^2, Day 1, Mean, read-out: AUCx5 (converted)",1.66 µM·h
same,Cmax,"Topotecan […]^2 (Cohort 1) with Compound 1 200 mg/m^2, Day 1, Mean, read-out: Cmax",69.5 ng/mL
same,half-life,"Topotecan […]^2 (Cohort 1) with Compound 1 200 mg/m^2, Day 1, Mean, read-out: t½ (converted)",4.33 h
same,AUC,"Topotecan […]^2 (Cohort 1) with Compound 1 200 mg/m^2, Day 1, Median, read-out: AUC24.5",150 ng·h/mL
same,AUC,"Topotecan […]^2 (Cohort 1) with Compound 1 200 mg/m^2, Day 1, Median, read-out: AUCx5 (converted)",1.66 µM·h
same,Cmax,"Topotecan […]^2 (Cohort 1) with Compound 1 200 mg/m^2, Day 1, Median, read-out: Cmax",69.5 ng/mL
same,half-life,"Topotecan […]^2 (Cohort 1) with Compound 1 200 mg/m^2, Day 1, Median, read-out: t½ (converted)",4.33 h
same,AUC,"Topotecan […]^2 (Cohort 1) with Compound 1 200 mg/m^2, Day 1, individual subjects, read-out: AUC24.5",130 ng·h/mL
same,AUC,"Topotecan […]^2 (Cohort 1) with Compound 1 200 mg/m^2, Day 1, individual subjects, read-out: AUCx5 (converted)",1.44 µM·h
same,half-life,"Topotecan […]^2 (Cohort 1) with Compound 1 200 mg/m^2, Day 1, individual subjects, read-out: t½ (converted)",4.56 h
same,Cmax,"Topotecan […]^2 (Cohort 1) with Compound 1 200 mg/m^2, Day 4, Mean, read-out: Cmax",89.3 ng/mL
same,half-life,"Topotecan […]^2 (Cohort 1) with Compound 1 200 mg/m^2, Day 4, Mean, read-out: t½ (converted)",4.87 h
same,Cmax,"Topotecan […]^2 (Cohort 1) with Compound 1 200 mg/m^2, Day 4, Median, read-out: Cmax",89.3 ng/mL
same,half-life,"Topotecan […]^2 (Cohort 1) with Compound 1 200 mg/m^2, Day 4, Median, read-out: t½ (converted)",4.87 h
same,half-life,"Topotecan […]^2 (Cohort 1) with Compound 1 200 mg/m^2, Day 4, individual subjects, read-out: t½ (converted)",5.11 h
same,AUC(0-inf),"topotecan 0.75 mg/m^2 (Cohort 3) after Compound 1 200 mg/m^2, Day 1, mean, read-out: AUCinf averaged",94.4 ng·h/mL
same,Cmax,"topotecan 0.75 mg/m^2 (Cohort 3) after Compound 1 200 mg/m^2, Day 1, mean, read-out: Cmax averaged",27.3 ng/mL
same,half-life,"topotecan 0.75 mg/m^2 (Cohort 3) after Compound 1 200 mg/m^2, Day 1, mean, read-out: Half-lives averaged (converted)",4.33 h
same,Cmax,"topotecan 0.75 mg/m^2 (Cohort 3) after Compound 1 200 mg/m^2, Day 4, mean, read-out: Cmax averaged",24.5 ng/mL
same,AUC(0-inf),"topotecan 1.25 mg/m^2 (Cohort 2) after Compound 1 200 mg/m^2, Day 1, mean, read-out: AUCinf averaged",180 ng·h/mL
same,Cmax,"topotecan 1.25 mg/m^2 (Cohort 2) after Compound 1 200 mg/m^2, Day 1, mean, read-out: Cmax averaged",63.7 ng/mL
same,half-life,"topotecan 1.25 mg/m^2 (Cohort 2) after Compound 1 200 mg/m^2, Day 1, mean, read-out: Half-lives averaged (converted)",4.93 h
same,Cmax,"topotecan 1.25 mg/m^2 (Cohort 2) after Compound 1 200 mg/m^2, Day 4, mean, read-out: Cmax averaged",59.6 ng/mL
same,AUC(0-inf),"topotecan […]^2 (Cohort 1) after Compound 1 200 mg/m^2, Day 1, mean, read-out: AUCinf averaged",152 ng·h/mL
same,Cmax,"topotecan […]^2 (Cohort 1) after Compound 1 200 mg/m^2, Day 1, mean, read-out: Cmax averaged",69.5 ng/mL
same,half-life,"topotecan […]^2 (Cohort 1) after Compound 1 200 mg/m^2, Day 1, mean, read-out: Half-lives averaged (converted)",4.33 h
same,Cmax,"topotecan […]^2 (Cohort 1) after Compound 1 200 mg/m^2, Day 4, mean, read-out: Cmax averaged",89.3 ng/mL
same,half-life,read-out: t½ (converted),5.45 h
